Measurements reported in patent publication US20260191970A1, “CRBN LIGAND, PREPARATION METHOD THEREFOR, AND APPLICATION” (Shenzhen Zhongge Biological Technology Co., Ltd., priority 2023, published 2026).

Biological target: T1, Human Cereblon WT GST-tagged protein (Homo sapiens, UniProt Q96SW2)
T1 construct: purchased CISBIO 64BDCRBNPEG
Assay: CRBN binding assay (HTRF method)
Details: competition with Thalidomide-Red, 25° C. 1 h
Procedure: In this experiment, the binding interaction between compounds and CRBN was detected, and based on the IC50 values, the affinity of the compounds for the CRBN target was evaluated.
The affinity of the compounds for CRBN was detected using CEREBLON BINDING KITS (CISBIO, 64 BDCRBNPEG) containing diluent #9, Human Cereblon WT GST-tagged protein, GST Eu Cryptate Antibody, and Thalidomide-Red.
20 nL of each of the compounds was transferred to a 384-well plate (PerkinElmer, 6007299) using an Ehco650 apparatus (Beckman, 650). 5 μL of 1× diluent #9 (CISBIO, 64BDCRBNPEG) was added to the 384-well plate, and then 5 μL of 1× Human Cereblon WT GST-tagged protein (CISBIO, 64BDCRBNPEG) was added. The plate was sealed with a plate sealer, shaken on a plate shaker (Kylin-Bell, MH-2) for 10 s, centrifuged at 1000 rpm for 1 min, and incubated at 25° C. for 5 min. 5 μL of 1×GST Eu Cryptate Antibody (CISBIO, 64BDCRBNPEG) and 5 μL of 1× Thalidomide-Red (CISBIO, 64BDCRBNPEG) were added to the 384-well plate. The plate was sealed with a plate sealer, shaken for 30 s, centrifuged at 1000 rpm for 1 min, and incubated at 25° C. for 1 h. The signals at 665 nm and 620 nm were measured using Envision (PerkinElmer, 2105-0020).
The IC50 values for compound activity were calculated using Graphpad Prism9 software based on the compound concentrations and the ratio of the signals at 665 nm and 620 nm. Calculation formula: […]

T1 sequence (Q96SW2 whole entry): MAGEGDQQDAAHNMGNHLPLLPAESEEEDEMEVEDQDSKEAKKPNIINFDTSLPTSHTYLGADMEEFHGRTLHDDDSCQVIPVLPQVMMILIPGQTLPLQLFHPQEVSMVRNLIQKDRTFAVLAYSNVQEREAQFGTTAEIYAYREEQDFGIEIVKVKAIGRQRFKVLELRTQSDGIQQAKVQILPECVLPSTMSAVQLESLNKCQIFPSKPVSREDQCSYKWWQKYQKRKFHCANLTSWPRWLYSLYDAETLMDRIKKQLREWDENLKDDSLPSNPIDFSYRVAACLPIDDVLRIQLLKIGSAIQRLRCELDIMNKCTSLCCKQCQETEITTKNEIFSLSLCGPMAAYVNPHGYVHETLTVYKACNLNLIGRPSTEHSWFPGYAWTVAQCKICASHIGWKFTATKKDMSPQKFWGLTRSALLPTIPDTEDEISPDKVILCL

IC50 [nM] | Compound
≤ 2000 | CC/C(NC1CCC(=O)NC1=O)=C1/C(=O)N(C)c2ccc(N)cc21 (racemic) [Compound 6]
≤ 2000 | CC/C(NC1CCC(=O)NC1=O)=C1/C(=O)N(C)c2ccc(N)cc21 (single isomer, unassigned) [Compound 6-A]
≤ 2000 | C/C(NC1CCC(=O)NC1=O)=C1/C(=O)Nc2ccc(Br)cc21 (stereo not shown) [Compound 1]
2000 to 5000 | C/C(NC1CCC(=O)NC1=O)=C1/C(=O)N(C)c2ccc(N)cc21 (stereo not shown) [Compound 4]
